# From patent US11000033B2, “Ketone or oxime compound, and herbicide” (NISSAN CHEMICAL CORPORATION, priority 2014, dated 2021)
# Columns and labels:
# Type in all cases: in vivo
# Chenopodium album = experiment: Test Example 5: herbicidal effect by foliage application, plastic box (symbol O); conditions: 320 g/ha, 3 weeks after application
# From the text: (§1) Herbicidal Effect Test by Foliage Application
# (§2) Sterilized diluvial soil was placed in a plastic box having a length of 21 cm, a width of 13 cm, and a depth of 7 cm. Each of the seeds of Digitaria ciliaris, Setaria viridis, Echinochloa crus-galli var. crus-galli, Avena fatua, Alopecurus myosuroides, Lolium multiflorum Lam., Apera spica-venti, Abutilon theophrasti, Amaranthus retroflexus, Chenopodium album, Stellaria media, Galium spurium, Veronica persica, corn, soybean, rice plant, wheat, beet, and rapeseed was sowed in a spot-like manner and was covered with the soil of a thickness of about 1.5 cm. Thereafter, the plants were grown in the greenhouse of 25° C. to 30° C. After the plants were grown for 14 days, the emulsion agent of the compound of the present invention prepared in accordance with Formulation Example 2 was diluted with water so as to be a predetermined herbicide amount and the diluted emulsion agent was uniformly applied to a foliage part with a small-size spray. 3 weeks later from the herbicide application, the effect to each plant was investigated in accordance with the criteria of Test Example 1.
# [1] = system: directly sowed rice plant; experiment: Test Example 3: effect on crop by foliage application, Wagner pot (symbol b); conditions: application herbicide amount 320 g/ha
# How it was run: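 Alluvial soil in a 1/10000-are Wagner pot was flooded to a water depth of 0.1–0.5 cm. Echinochloa crus-galli var. crus-galli, Leptochloa chinensis, Cyperus difformis and rice were sown into it and grown in a greenhouse at 25–30 °C.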
# soybean = experiment: Test Example 5: effect on crop by foliage application, plastic box (symbol d); conditions: 320 g/ha, 3 weeks after application
# From the text: as §1
# (§3) Sterilized diluvial soil was placed in a plastic box having a length of 21 cm, a width of 13 cm, and a depth of 7 cm. Each of the seeds of Digitaria ciliaris, Setaria viridis, Echinochloa crus-galli var. crus-galli, Avena fatua, Alopecurus myosuroides, Lolium multiflorum Lam., Apera spica-venti, Abutilon theophrasti, Amaranthus retroflexus, Chenopodium album, Stellaria media, Galium spurium, Veronica persica, corn, soybean, rice plant, wheat, beet, and rapeseed was sowed in a spot-like manner and was covered with the soil of a thickness of about 1.5 cm. Thereafter, the plants were grown in the greenhouse of 25° C. to 30° C.
# Leptochloa chinensis = experiment: Test Example 3: herbicidal effect by foliage application, Wagner pot (symbol D); conditions: application herbicide amount 320 g/ha
# How it was run: (§4)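 Plants sown in submerged alluvial soil (water depth 0.1–0.5 cm) in a 25–30 °C greenhouse and grown 14 days. An emulsion of the compound diluted in water to a set herbicide amount was sprayed uniformly on foliage. Effect on each plant scored 3 weeks after application.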
# Galium spurium = experiment: Test Example 5: herbicidal effect by foliage application, plastic box (symbol Q); conditions: 320 g/ha, 3 weeks after application
# From the text: as §1, §2
# Veronica persica = experiment: Test Example 5: herbicidal effect by foliage application, plastic box (symbol R); conditions: 320 g/ha, 3 weeks after application
# From the text: as §1, §2
# rapeseed = experiment: Test Example 5: effect on crop by foliage application, plastic box (symbol g); conditions: 320 g/ha, 3 weeks after application
# From the text: as §1, §3
# Digitaria ciliaris = experiment: Test Example 5: herbicidal effect by foliage application, plastic box (symbol F); conditions: 320 g/ha, 3 weeks after application
# From the text: as §1, §2
# Apera spica-venti = experiment: Test Example 5: herbicidal effect by foliage application, plastic box (symbol L); conditions: 320 g/ha, 3 weeks after application
# From the text: as §1, §2
# Amaranthus retroflexus = experiment: Test Example 5: herbicidal effect by foliage application, plastic box (symbol N); conditions: 320 g/ha, 3 weeks after application
# From the text: as §1, §2
# Abutilon theophrasti = experiment: Test Example 5: herbicidal effect by foliage application, plastic box (symbol M); conditions: 320 g/ha, 3 weeks after application
# From the text: as §1, §2
# Cyperus difformis = experiment: Test Example 3: herbicidal effect by foliage application, Wagner pot (symbol E); conditions: application herbicide amount 320 g/ha
# How it was run: as §4
# wheat = experiment: Test Example 5: effect on crop by foliage application, plastic box (symbol e); conditions: 320 g/ha, 3 weeks after application
# From the text: as §1, §3
# [2] = system: Echinochloa crus-galli var. crus-galli; experiment: Test Example 5: herbicidal effect by foliage application, plastic box (symbol H); conditions: 320 g/ha, 3 weeks after application
# From the text: as §1, §2
# beet = experiment: Test Example 5: effect on crop by foliage application, plastic box (symbol f); conditions: 320 g/ha, 3 weeks after application
# From the text: as §1, §3
# Alopecurus myosuroides = experiment: Test Example 5: herbicidal effect by foliage application, plastic box (symbol J); conditions: 320 g/ha, 3 weeks after application
# From the text: as §1, §2
# corn = experiment: Test Example 5: effect on crop by foliage application, plastic box (symbol c); conditions: 320 g/ha, 3 weeks after application
# From the text: as §1, §3
# Avena fatua = experiment: Test Example 5: herbicidal effect by foliage application, plastic box (symbol I); conditions: 320 g/ha, 3 weeks after application
# From the text: as §1, §2
# Setaria viridis = experiment: Test Example 5: herbicidal effect by foliage application, plastic box (symbol G); conditions: 320 g/ha, 3 weeks after application
# From the text: as §1, §2
# Lolium multiflorum Lam. = experiment: Test Example 5: herbicidal effect by foliage application, plastic box (symbol K); conditions: 320 g/ha, 3 weeks after application
# From the text: as §1, §2
# Stellaria media = experiment: Test Example 5: herbicidal effect by foliage application, plastic box (symbol P); conditions: 320 g/ha, 3 weeks after application
# From the text: as §1, §2
# rice plant = experiment: Test Example 5: effect on crop by foliage application, plastic box (symbol b); conditions: 320 g/ha, 3 weeks after application
# From the text: as §1, §3
# [3] = system: Echinochloa crus-galli var. crus-galli; experiment: Test Example 3: herbicidal effect by foliage application, Wagner pot (symbol H); conditions: application herbicide amount 320 g/ha
# How it was run: as §4
smiles,measurement,setting,value
CCOC(=O)C(C(=O)C(C)C)C1CC(O)=C(c2c(C)cc(Br)cc2C)C1=O (mixture of isomers) [10-001],"O: Chenopodium album, herbicidal effect grade",Chenopodium album,0 (Herbicidal ratio of 5% or lower (almost no effect))
same,b (directly sowed rice plant) effect on crop grade,[1]; Table 24,3 (Herbicidal ratio of 40% or higher and lower than 70%)
same,"d: soybean, effect on crop grade",soybean,0 (Herbicidal ratio of 5% or lower (almost no effect))
same,D (Leptochloa chinensis) herbicidal effect grade,Leptochloa chinensis; Table 24,4 (Herbicidal ratio of 70% or higher and lower than 90%)
same,"Q: Galium spurium, herbicidal effect grade",Galium spurium,0 (Herbicidal ratio of 5% or lower (almost no effect))
same,"R: Veronica persica, herbicidal effect grade",Veronica persica,0 (Herbicidal ratio of 5% or lower (almost no effect))
same,"g: rapeseed, effect on crop grade",rapeseed,0 (Herbicidal ratio of 5% or lower (almost no effect))
same,"F: Digitaria ciliaris, herbicidal effect grade",Digitaria ciliaris,3 (Herbicidal ratio of 40% or higher and lower than 70%)
same,"L: Apera spica-venti, herbicidal effect grade",Apera spica-venti,0 (Herbicidal ratio of 5% or lower (almost no effect))
same,"N: Amaranthus retroflexus, herbicidal effect grade",Amaranthus retroflexus,0 (Herbicidal ratio of 5% or lower (almost no effect))
same,"M: Abutilon theophrasti, herbicidal effect grade",Abutilon theophrasti,0 (Herbicidal ratio of 5% or lower (almost no effect))
same,E herbicidal effect grade,Cyperus difformis; Table 24,0 (Herbicidal ratio of 5% or lower (almost no effect))
same,"e: wheat, effect on crop grade",wheat,0 (Herbicidal ratio of 5% or lower (almost no effect))
same,"H: Echinochloa crus-galli var. crus-galli, herbicidal effect grade",[2],4 (Herbicidal ratio of 70% or higher and lower than 90%)
same,"f: beet, effect on crop grade",beet,0 (Herbicidal ratio of 5% or lower (almost no effect))
same,"J: Alopecurus myosuroides, herbicidal effect grade",Alopecurus myosuroides,1 (Herbicidal ratio of 5% or higher and lower than 20%)
same,"c: corn, effect on crop grade",corn,1 (Herbicidal ratio of 5% or higher and lower than 20%)
same,"I: Avena fatua, herbicidal effect grade",Avena fatua,1 (Herbicidal ratio of 5% or higher and lower than 20%)
same,"G: Setaria viridis, herbicidal effect grade",Setaria viridis,2 (Herbicidal ratio of 20% or higher and lower than 40%)
same,"K: Lolium multiflorum Lam., herbicidal effect grade",Lolium multiflorum Lam.,3 (Herbicidal ratio of 40% or higher and lower than 70%)
same,"P: Stellaria media, herbicidal effect grade",Stellaria media,0 (Herbicidal ratio of 5% or lower (almost no effect))
same,"b: directly sowed rice plant, effect on crop grade",rice plant,2 (Herbicidal ratio of 20% or higher and lower than 40%)
same,H (Echinochloa crus-galli var. crus-galli) herbicidal effect grade,[3]; Table 24,5 (Herbicidal ratio of 90% or more (almost completely withered))
CC(CC1CC(O)=C(c2c(C)cc(C)cc2C)C1=O)=NOCCN (centres unmarked) [1-132],"O: Chenopodium album, herbicidal effect (criteria 0-5)",Chenopodium album,0 (Herbicidal ratio of 5% or lower (almost no effect))
same,"effect on crop b (directly sowed rice plant), grade 0-5",[1],1 (Herbicidal ratio of 5% or higher and lower than 20%)
same,"d: soybean, effect on crop (criteria 0-5)",soybean,0 (Herbicidal ratio of 5% or lower (almost no effect))
same,"herbicidal effect on D (Leptochloa chinensis), grade 0-5",Leptochloa chinensis,1 (Herbicidal ratio of 5% or higher and lower than 20%)
same,"Q: Galium spurium, herbicidal effect (criteria 0-5)",Galium spurium,0 (Herbicidal ratio of 5% or lower (almost no effect))
same,"R: Veronica persica, herbicidal effect (criteria 0-5)",Veronica persica,0 (Herbicidal ratio of 5% or lower (almost no effect))
same,"g: rapeseed, effect on crop (criteria 0-5)",rapeseed,3 (Herbicidal ratio of 40% or higher and lower than 70%)
same,"F: Digitaria ciliaris, herbicidal effect (criteria 0-5)",Digitaria ciliaris,0 (Herbicidal ratio of 5% or lower (almost no effect))
same,"L: Apera spica-venti, herbicidal effect (criteria 0-5)",Apera spica-venti,1 (Herbicidal ratio of 5% or higher and lower than 20%)
same,"N: Amaranthus retroflexus, herbicidal effect (criteria 0-5)",Amaranthus retroflexus,0 (Herbicidal ratio of 5% or lower (almost no effect))
same,"M: Abutilon theophrasti, herbicidal effect (criteria 0-5)",Abutilon theophrasti,0 (Herbicidal ratio of 5% or lower (almost no effect))
same,"herbicidal effect on E, grade 0-5",Cyperus difformis,0 (Herbicidal ratio of 5% or lower (almost no effect))
same,"e: wheat, effect on crop (criteria 0-5)",wheat,0 (Herbicidal ratio of 5% or lower (almost no effect))
same,"H: Echinochloa crus-galli var. crus-galli, herbicidal effect (criteria 0-5)",[2],0 (Herbicidal ratio of 5% or lower (almost no effect))
same,"f: beet, effect on crop (criteria 0-5)",beet,0 (Herbicidal ratio of 5% or lower (almost no effect))
same,"J: Alopecurus myosuroides, herbicidal effect (criteria 0-5)",Alopecurus myosuroides,2 (Herbicidal ratio of 20% or higher and lower than 40%)
same,"c: corn, effect on crop (criteria 0-5)",corn,0 (Herbicidal ratio of 5% or lower (almost no effect))
same,"I: Avena fatua, herbicidal effect (criteria 0-5)",Avena fatua,1 (Herbicidal ratio of 5% or higher and lower than 20%)
same,"G: Setaria viridis, herbicidal effect (criteria 0-5)",Setaria viridis,0 (Herbicidal ratio of 5% or lower (almost no effect))
same,"K: Lolium multiflorum Lam., herbicidal effect (criteria 0-5)",Lolium multiflorum Lam.,3 (Herbicidal ratio of 40% or higher and lower than 70%)
same,"P: Stellaria media, herbicidal effect (criteria 0-5)",Stellaria media,0 (Herbicidal ratio of 5% or lower (almost no effect))
same,"b: directly sowed rice plant, effect on crop (criteria 0-5)",rice plant,1 (Herbicidal ratio of 5% or higher and lower than 20%)
same,"herbicidal effect on H (Echinochloa crus-galli var. crus-galli), grade 0-5",[3],2 (Herbicidal ratio of 20% or higher and lower than 40%)
CON=C(C)CC1CC(O)=C(c2c(C)cc(-c3ccncc3)cc2C)C1=O (centres unmarked) [6-105],"O: Chenopodium album, herbicidal effect (criteria of Test Example 1)",Chenopodium album,0 (Herbicidal ratio of 5% or lower (almost no effect))
same,"effect on crop b (directly sowed rice plant), grade 0-5",[1],4 (Herbicidal ratio of 70% or higher and lower than 90%)
same,"d: soybean, effect on crop (criteria of Test Example 1)",soybean,0 (Herbicidal ratio of 5% or lower (almost no effect))
same,"herbicidal effect on D (Leptochloa chinensis), grade 0-5",Leptochloa chinensis,4 (Herbicidal ratio of 70% or higher and lower than 90%)
same,"Q: Galium spurium, herbicidal effect (criteria of Test Example 1)",Galium spurium,3 (Herbicidal ratio of 40% or higher and lower than 70%)
same,"R: Veronica persica, herbicidal effect (criteria of Test Example 1)",Veronica persica,3 (Herbicidal ratio of 40% or higher and lower than 70%)
same,"g: rapeseed, effect on crop (criteria of Test Example 1)",rapeseed,4 (Herbicidal ratio of 70% or higher and lower than 90%)
same,"F: Digitaria ciliaris, herbicidal effect (criteria of Test Example 1)",Digitaria ciliaris,5 (Herbicidal ratio of 90% or more (almost completely withered))
same,"L: Apera spica-venti, herbicidal effect (criteria of Test Example 1)",Apera spica-venti,2 (Herbicidal ratio of 20% or higher and lower than 40%)
same,"N: Amaranthus retroflexus, herbicidal effect (criteria of Test Example 1)",Amaranthus retroflexus,0 (Herbicidal ratio of 5% or lower (almost no effect))
same,"M: Abutilon theophrasti, herbicidal effect (criteria of Test Example 1)",Abutilon theophrasti,0 (Herbicidal ratio of 5% or lower (almost no effect))
same,"e: wheat, effect on crop (criteria of Test Example 1)",wheat,0 (Herbicidal ratio of 5% or lower (almost no effect))
same,"H: Echinochloa crus-galli var. crus-galli, herbicidal effect (criteria of Test Example 1)",[2],5 (Herbicidal ratio of 90% or more (almost completely withered))
same,"f: beet, effect on crop (criteria of Test Example 1)",beet,0 (Herbicidal ratio of 5% or lower (almost no effect))
same,"J: Alopecurus myosuroides, herbicidal effect (criteria of Test Example 1)",Alopecurus myosuroides,2 (Herbicidal ratio of 20% or higher and lower than 40%)
same,"c: corn, effect on crop (criteria of Test Example 1)",corn,3 (Herbicidal ratio of 40% or higher and lower than 70%)
same,"I: Avena fatua, herbicidal effect (criteria of Test Example 1)",Avena fatua,2 (Herbicidal ratio of 20% or higher and lower than 40%)
same,"G: Setaria viridis, herbicidal effect (criteria of Test Example 1)",Setaria viridis,5 (Herbicidal ratio of 90% or more (almost completely withered))
same,"K: Lolium multiflorum Lam., herbicidal effect (criteria of Test Example 1)",Lolium multiflorum Lam.,4 (Herbicidal ratio of 70% or higher and lower than 90%)
same,"P: Stellaria media, herbicidal effect (criteria of Test Example 1)",Stellaria media,0 (Herbicidal ratio of 5% or lower (almost no effect))
same,"b: directly sowed rice plant, effect on crop (criteria of Test Example 1)",rice plant,3 (Herbicidal ratio of 40% or higher and lower than 70%)
same,"herbicidal effect on H (Echinochloa crus-galli var. crus-galli), grade 0-5",[3],3 (Herbicidal ratio of 40% or higher and lower than 70%)
